This passage reports inhibition results from ChEMBL document CHEMBL2007661, “Compounds: GSK PKIS; Assays: UNC Frye lab” (2012).

Assay [1] concerns the target T1, Inhibitor of nuclear factor kappa-B kinase subunit beta (Homo sapiens) (UniProt O14920).
T1 sequence (whole entry): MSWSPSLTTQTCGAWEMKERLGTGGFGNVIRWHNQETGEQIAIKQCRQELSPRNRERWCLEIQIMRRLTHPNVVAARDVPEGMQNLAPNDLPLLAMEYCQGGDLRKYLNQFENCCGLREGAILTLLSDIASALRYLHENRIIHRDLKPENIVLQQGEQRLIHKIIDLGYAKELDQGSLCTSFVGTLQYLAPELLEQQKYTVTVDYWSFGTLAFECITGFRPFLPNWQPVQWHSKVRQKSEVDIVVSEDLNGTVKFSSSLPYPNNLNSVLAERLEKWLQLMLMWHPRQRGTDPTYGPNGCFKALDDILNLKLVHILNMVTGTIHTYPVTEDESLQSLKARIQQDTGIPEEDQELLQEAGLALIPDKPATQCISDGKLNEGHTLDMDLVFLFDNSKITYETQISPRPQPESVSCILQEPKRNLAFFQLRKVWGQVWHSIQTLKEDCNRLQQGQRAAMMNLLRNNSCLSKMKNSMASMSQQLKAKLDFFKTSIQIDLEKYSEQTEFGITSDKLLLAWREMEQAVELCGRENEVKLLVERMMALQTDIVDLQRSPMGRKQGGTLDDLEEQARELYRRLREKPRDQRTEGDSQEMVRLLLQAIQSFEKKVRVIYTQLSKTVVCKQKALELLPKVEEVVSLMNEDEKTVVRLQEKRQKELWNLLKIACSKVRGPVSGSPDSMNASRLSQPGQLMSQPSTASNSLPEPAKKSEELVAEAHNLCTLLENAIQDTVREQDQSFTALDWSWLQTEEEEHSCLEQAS
As to conditions: at 1 µM.

Assay [2] concerns the target T2, Tyrosine-protein kinase Mer (Homo sapiens) (UniProt Q12866).
T2 sequence (whole entry): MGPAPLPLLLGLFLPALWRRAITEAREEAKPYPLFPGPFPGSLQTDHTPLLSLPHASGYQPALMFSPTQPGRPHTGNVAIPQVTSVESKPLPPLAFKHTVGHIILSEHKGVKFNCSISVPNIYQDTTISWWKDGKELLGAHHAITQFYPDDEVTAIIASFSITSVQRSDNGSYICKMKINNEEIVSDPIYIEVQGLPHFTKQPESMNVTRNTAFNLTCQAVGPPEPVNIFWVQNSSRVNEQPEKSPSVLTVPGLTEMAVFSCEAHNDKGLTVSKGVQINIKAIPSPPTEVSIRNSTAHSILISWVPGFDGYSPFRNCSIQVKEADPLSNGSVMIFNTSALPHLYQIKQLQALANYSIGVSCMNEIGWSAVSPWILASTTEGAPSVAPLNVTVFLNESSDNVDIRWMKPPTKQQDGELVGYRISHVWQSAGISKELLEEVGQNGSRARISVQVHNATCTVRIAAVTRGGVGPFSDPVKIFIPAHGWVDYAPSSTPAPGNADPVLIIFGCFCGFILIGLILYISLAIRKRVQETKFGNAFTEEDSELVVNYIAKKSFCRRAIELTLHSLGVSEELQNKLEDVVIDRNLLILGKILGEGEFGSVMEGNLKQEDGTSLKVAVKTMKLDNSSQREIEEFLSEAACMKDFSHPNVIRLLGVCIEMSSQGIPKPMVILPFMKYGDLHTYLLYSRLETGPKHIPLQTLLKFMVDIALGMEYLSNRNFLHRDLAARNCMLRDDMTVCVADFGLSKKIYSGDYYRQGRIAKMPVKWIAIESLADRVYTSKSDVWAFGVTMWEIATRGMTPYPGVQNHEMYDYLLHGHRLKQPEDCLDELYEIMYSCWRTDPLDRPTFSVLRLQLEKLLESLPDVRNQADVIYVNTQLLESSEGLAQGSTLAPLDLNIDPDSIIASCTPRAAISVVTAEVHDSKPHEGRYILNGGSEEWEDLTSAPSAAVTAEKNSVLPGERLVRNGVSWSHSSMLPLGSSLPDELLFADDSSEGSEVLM
As to conditions: at 10 µM.

For assay [3], the target named is T3, Inhibitor of nuclear factor kappa-B kinase subunit alpha (Homo sapiens) (UniProt O15111).
T3 sequence (whole entry): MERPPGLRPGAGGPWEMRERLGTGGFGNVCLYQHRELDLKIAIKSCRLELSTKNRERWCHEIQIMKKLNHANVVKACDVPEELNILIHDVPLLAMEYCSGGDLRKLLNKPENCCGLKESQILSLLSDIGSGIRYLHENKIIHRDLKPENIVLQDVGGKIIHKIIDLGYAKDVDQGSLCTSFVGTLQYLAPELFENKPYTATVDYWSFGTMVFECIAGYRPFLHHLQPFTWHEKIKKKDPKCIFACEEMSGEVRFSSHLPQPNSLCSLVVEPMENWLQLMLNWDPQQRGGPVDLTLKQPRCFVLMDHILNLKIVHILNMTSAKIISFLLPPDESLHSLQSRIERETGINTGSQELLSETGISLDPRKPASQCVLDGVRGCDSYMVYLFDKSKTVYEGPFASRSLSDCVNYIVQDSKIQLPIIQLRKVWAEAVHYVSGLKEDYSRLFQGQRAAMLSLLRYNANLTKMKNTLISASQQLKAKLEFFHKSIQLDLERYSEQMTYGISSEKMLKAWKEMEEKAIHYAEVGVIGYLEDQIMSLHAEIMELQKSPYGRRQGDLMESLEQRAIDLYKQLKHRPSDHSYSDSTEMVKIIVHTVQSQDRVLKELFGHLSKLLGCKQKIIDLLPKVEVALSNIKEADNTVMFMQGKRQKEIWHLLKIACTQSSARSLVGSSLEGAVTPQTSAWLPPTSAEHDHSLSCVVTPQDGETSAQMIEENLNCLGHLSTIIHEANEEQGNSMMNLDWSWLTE
The settings on record: at 1 µM.

The structures appear in SMILES notation. Several values for one entry are separate records, joined by “and”; a condition that tells them apart may be missing. Equal entries are not always repeated.

Usually inhibition stands for the relative decrease from the control value, in per cent. For the compound `FC(F)(F)c1cccc(-c2nn3ncccc3c2-c2ccnc(Nc3ccc4c(c3)OCCO4)n2)c1`, the inhibition in assay [1] is -3% and -2%; in assay [2], -2%; in assay [3], 1% and 2%.
Take `c1ccc(-c2n[nH]cc2-c2ccnc(-c3ccc(OCCN4CCOCC4)cc3)c2)nc1`: the inhibition in assay [1] is -4% and -10%; in assay [2], -1%; in assay [3], 5% and 4%.
`COc1cc2ncn(-c3cc(O[C@H](C)c4ccccc4Cl)c(C(N)=O)s3)c2cc1OC`: the inhibition in assay [1] was 0% and -8%; in assay [2] it was -8%; in assay [3], -2% and 4%.
For the compound `O=C1NC(=O)C(c2cccc(Cl)c2)=C1Nc1ccc(O)c(Cl)c1`, the inhibition in assay [1] is -6% and -9%; in assay [2], 99%; in assay [3], 3% and 4%.
As to `CCc1nn2ncccc2c1-c1ccnc(NC2CC2)n1`, the inhibition in assay [1] is -3% and -4%; in assay [2], -4%; in assay [3], 0%.
Take `CS(=O)(=O)Nc1ccc(-c2ccc3c(NC(=O)C4CC4)n[nH]c3c2)cc1`: the inhibition is -3% and 2% in assay [1]; 1% in assay [2]; 5% and 3% in assay [3].
Regarding `CCS(=O)(=O)c1ccc(OC)c(Nc2ncc(-c3cccc(OC)c3)o2)c1`, the inhibition in assay [1] was 3% and 0%; in assay [2] it was -1%; in assay [3], 1%.
For `Cc1cc(-c2ccccn2)cc(C)c1/C=C/c1cncc(-c2nn[nH]n2)c1`, the inhibition in assay [1] was -5% and -2%; in assay [2], -7%; in assay [3] it was 3% and 1%.
Take `COc1ccc(-c2cc3c(N)ncnc3o2)cc1`: the inhibition in assay [1] was -5% and 1%; in assay [2], 5%; in assay [3], 2% and 3%.
On to `NS(=O)(=O)c1ccc(N/N=C2\C(=O)Nc3ccc(-c4cnco4)cc32)cc1`, for which the inhibition is -2% in assay [1], 16% in assay [2] and -3% in assay [3].
`COc1ccccc1Nc1ncc(-c2ccccc2)o1`: the inhibition is 3% and 0% in assay [1]; 3% in assay [2]; -1% and 3% in assay [3].
For the compound `Fc1ccc(-c2cc(-c3c[nH]nc3-c3ccccn3)ccn2)cc1`, the inhibition in assay [1] is -4% and -2%; in assay [2] it was -3%; in assay [3], 6%.
Take `CN1CCN(CCCNc2nc3ccc(Oc4ccc(NC(=O)Nc5cc(C(F)(F)F)ccc5F)cc4)cc3[nH]2)CC1`: the figures for the inhibition in assay [1], in assay [2] and in assay [3] were -5%, -1% and 4%, respectively.
As for `CCn1c(-c2nonc2N)nc2c(C#CC(C)(C)O)nc(O[C@@H](CN)c3ccccc3)cc21`, the inhibition in assay [1] is -3% and -4%; in assay [2], -9%; in assay [3], 17% and 19%.
Take `CC(=O)NCc1cccc(C#Cc2cncnc2Nc2ccc(OCc3cccc(F)c3)c(Cl)c2)c1`: the inhibition in assay [1] was -3% and -4%; in assay [2] it was -7%; in assay [3], 1%.
`CN(C)c1ccc2c(c1)/C(=C/Nc1ccc(S(N)(=O)=O)cc1)C(=O)N2`: the inhibition in assay [1] is -3%; in assay [2], 2%; in assay [3], 0% and -1%.
As for `O=C1Nc2ccc(C(=O)c3ccco3)cc2C1=Cc1cc(Cl)c(O)c(Cl)c1`, the inhibition in assay [1] was -8% and -7%; in assay [2], -1%; in assay [3], 5% and 4%.
As to `Cc1cc(O)cc(C)c1/C=C/c1cncc(-c2nn[nH]n2)c1`, the inhibition in assay [1] is -4% and -5%; in assay [2], -2%; in assay [3] it was 4% and 5%.
As for `Cc1nnc(-c2ccc(C)c(-c3ccc(C(=O)NCc4ccc(Cl)cc4)cc3)c2)o1`, the inhibition in assay [1] is -2% and 0%; in assay [2], 92%; in assay [3], 2% and 4%.
With `NS(=O)(=O)c1ccc(NC=C2C(=O)Nc3ccc4ncsc4c32)cc1`, the inhibition was -3% and -2% in assay [1]; -5% in assay [2]; 2% and 6% in assay [3].
Consider `CCS(=O)(=O)c1ccc(OC)c(Nc2ncc(-c3ccccc3Cl)o2)c1`, for which the inhibition in assay [1] was -7% and -4%; in assay [2], 6%; in assay [3], -3% and 4%.
Turning to `CCNC(=O)O[C@H]1CN[C@H](C#Cc2cc3ncnc(Nc4ccc(OCc5cccc(F)c5)c(Cl)c4)c3s2)C1`, the inhibition was -5% and -3% in assay [1]; 2% in assay [2]; 4% and 5% in assay [3].
For `CCN(CC)S(=O)(=O)c1ccc(OC)c(Nc2ncc(-c3ccccc3)o2)c1`, the inhibition in assay [1] was -1% and 2%; in assay [2], 13%; in assay [3], 1%.
Turning to `C[C@@H](Oc1cc(-n2cnc3ccc(OC[C@@H](O)CO)cc32)sc1C(N)=O)c1ccccc1Cl`, the inhibition in assay [1] is 1% and 4%; in assay [2], -1%; in assay [3], -3% and -4%.
On to `CCn1c(-c2nonc2N)nc2c(C#CC(C)(C)O)nc(CN3CCCC3)cc21`, for which the inhibition in assay [1] was -3% and 3%; in assay [2], -6%; in assay [3], -7% and 2%.
As for `CNC(=O)c1cncc(/C=C/c2c(C)cccc2C)c1`, the inhibition in assay [1] was 1% and -2%; in assay [2], -3%; in assay [3], -6% and -4%.
For `O=C(Nc1n[nH]c2nc(-c3ccc(O)cc3)c(Br)cc12)C1CC1`, the inhibition is -4% and -2% in assay [1]; 39% in assay [2]; 2% and 14% in assay [3].
For the compound `CCN(CC)Cc1ccc(Nc2nccc(-c3cnn4ncccc34)n2)cc1`, the inhibition in assay [1] was -9% and -7%; in assay [2] it was 5%; in assay [3] it was -1% and -2%.
For `COc1ccc(-c2nn3ncccc3c2-c2ccnc(Nc3ccc(Cl)c(C(F)(F)F)c3)n2)cc1`, the inhibition was -4% and -5% in assay [1]; 13% in assay [2]; -2% and 3% in assay [3].
`COc1ccc2ncnc(Nc3ccc(OCc4ccccc4)cc3)c2c1`: the inhibition in assay [1] was -1% and 4%; in assay [2], -4%; in assay [3], 2% and 3%.
Consider `O=C1Nc2ccccc2/C1=C1\CCc2cc(O)ccc21`, for which the inhibition was -3% and -4% in assay [1]; 7% in assay [2]; 1% and 0% in assay [3].
Turning to `CNC(=O)Oc1cc(C)c(/C=C/c2cncc(C(=O)NC)c2)c(C)c1`, the inhibition was 1% and -3% in assay [1]; 48% in assay [2]; -3% and 5% in assay [3].
